# Data as given in ChEMBL document CHEMBL1201862, “PubChem BioAssay data set” (2004).
# Activity calls are given as the source filed them.
# Columns and labels:
# [1] = HeLa cell cytotoxicity, dose response, cytotoxicity control, 24 h, plate reader, dry powder (AID 686928); type: functional, cell-based
# [2] = Counterscreen for activators of the function of SWI/SNF related, matrix associated, actin dependent regulator of chromatin, subfamily a, member 2 (SMARCA2, BRM): Luminescence-based cell-based high throughput dose response assay to identify non-selective compounds using the VP16 reporter assay.; type: functional
# [3] = target: SWI/SNF-related matrix-associated actin-dependent regulator of chromatin subfamily A member 2 (Homo sapiens, UniProt P51531); assay: Luminescence-based cell-based high throughput dose response assay to identify activators of the function of SWI/SNF related, matrix associated, actin dependent regulator of chromatin, subfamily a, member 2 (SMARCA2, BRM).; type: functional
# [4] = cells; type: functional, cell-based
# [5] = target: T1, Nuclear receptor subfamily 0 group B member 1 (Homo sapiens, UniProt P51843); type: functional, cell-based;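 further: HEK293T cells transfected with SF-1 and DAX-1 plus StAR promoter luciferase reporter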
# T1 sequence (P51843 whole entry): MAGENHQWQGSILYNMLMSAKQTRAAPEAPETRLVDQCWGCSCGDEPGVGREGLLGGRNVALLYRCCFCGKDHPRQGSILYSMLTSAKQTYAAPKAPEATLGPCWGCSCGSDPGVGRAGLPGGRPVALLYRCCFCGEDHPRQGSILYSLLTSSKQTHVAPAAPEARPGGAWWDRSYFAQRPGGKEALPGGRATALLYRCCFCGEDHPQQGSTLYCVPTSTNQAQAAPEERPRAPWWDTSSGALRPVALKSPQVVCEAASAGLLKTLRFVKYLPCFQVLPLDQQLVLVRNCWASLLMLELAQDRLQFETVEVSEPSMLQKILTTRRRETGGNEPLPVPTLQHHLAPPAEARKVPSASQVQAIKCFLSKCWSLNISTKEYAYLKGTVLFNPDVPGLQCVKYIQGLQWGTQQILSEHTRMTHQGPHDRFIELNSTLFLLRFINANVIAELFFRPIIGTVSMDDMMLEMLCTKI
# [6] = target: T2, Long-chain-fatty-acid--AMP ligase FadD28 (Mycobacterium tuberculosis, UniProt P9WQ59); assay: Fluorescence polarization aasay to screen for inhibitors that compete for the binding of FadD28 to a bisubstrate Measured in Biochemical System Using Plate Reader - 2147-01_Inhibitor_Dose_CherryPick_Activity.; type: functional, Mycobacterium tuberculosis H37Rv
# T2 sequence (P9WQ59 whole entry): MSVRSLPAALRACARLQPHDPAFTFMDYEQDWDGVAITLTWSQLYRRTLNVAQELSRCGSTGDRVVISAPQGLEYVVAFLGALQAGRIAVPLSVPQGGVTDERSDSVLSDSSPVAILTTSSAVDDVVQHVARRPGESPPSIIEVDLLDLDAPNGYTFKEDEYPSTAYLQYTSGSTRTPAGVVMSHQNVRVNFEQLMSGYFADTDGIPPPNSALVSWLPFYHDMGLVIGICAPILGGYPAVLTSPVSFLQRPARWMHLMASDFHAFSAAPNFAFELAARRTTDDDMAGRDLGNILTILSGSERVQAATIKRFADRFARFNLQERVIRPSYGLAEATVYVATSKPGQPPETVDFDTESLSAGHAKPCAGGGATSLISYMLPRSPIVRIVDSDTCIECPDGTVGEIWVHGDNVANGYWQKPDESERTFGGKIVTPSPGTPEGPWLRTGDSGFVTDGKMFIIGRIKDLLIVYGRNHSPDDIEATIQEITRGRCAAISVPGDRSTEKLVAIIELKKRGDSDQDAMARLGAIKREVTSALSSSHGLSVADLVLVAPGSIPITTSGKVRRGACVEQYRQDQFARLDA
# [7] = test system: HeLa; assay: HeLa cell cytotoxicity, dose response, cytotoxicity control for MITF activator project, CellTiter-Glo luminescence, cherry-pick samples (AID 540259); type: functional, cell-based; details: Homo sapiens
# [8] = HEK293 cell cytotoxicity, dose response, cytotoxicity control, dry powder samples (AID 720567); type: functional, cell-based
# [9] = target: Disintegrin and metalloproteinase domain-containing protein 17 (Homo sapiens, UniProt P78536); assay: exosite inhibitors of ADAM17, dose response, biochemical (AID 743260)
# [10] = ADAM10 protease inhibitors, dose response, selectivity assay for ADAM17 exosite inhibitor project, biochemical, FRET peptide substrate, recombinant human ADAM10 (AID 743259);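 further: ADAM10 enzyme cleaving a FRET peptide substrate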
# [11] = target: Paired box protein Pax-8 (Homo sapiens, UniProt Q06710); assay: inhibitors of PAX8-driven TPO luciferase reporter, dose response, RMG-I cells, cherry-pick (AID 687027); type: functional, cell-based;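 further: luciferase reporter driven by Pax8 target thyroperoxidase promoter measured by SteadyGlo luminescence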
# [12] = NIH:OVCAR-3 ovarian cancer cell cytotoxicity, dose response, PAX8 inhibitor project, plate reader, dry powder samples (AID 743044); type: functional, cell-based
# [13] = IGROV1 ovarian cancer cell cytotoxicity, dose response, PAX8 inhibitor project, plate reader, dry powder samples (AID 743043); type: functional, cell-based; details: IGROV-1
# [14] = cytotoxicity in OVCAR8 ovarian cancer cells, dose response, PAX8 project, cell-based, plate reader, dry powder samples (AID 743197); type: functional; details: OVCAR-8
# [15] = A549 cell cytotoxicity, dose response, cytotoxicity control, plate reader, cherry-pick, antagonist series (AID 743412); type: functional, cell-based
# [16] = HepG2 cell cytotoxicity, dose response, cytotoxicity control, plate reader, cherry-pick, antagonist series (AID 743416); type: functional, cell-based
# [17] = HEK293 cell cytotoxicity, dose response, cytotoxicity control, plate reader, cherry-picked samples (AID 743446); type: functional, cell-based
# [18] = LGR2 antagonists, dose response, cell-based, HEK293, CRE-luciferase reporter, cherry pick, set 2 (AID 743343); type: functional;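 further: transfected cells were stimulated with diluted bursicon conditioned medium after compound addition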
# [19] = MC4R antagonists, dose response, counter-screen for LGR2 antagonist project, cell-based, plate reader, cherry pick (AID 743444); type: functional;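 further: transfected HEK 293 cells stimulated with alpha-MSH peptide; potency of inhibitors of the alpha-MSH evoked signal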
# [20] = IOSE-T80 ovarian epithelial cell cytotoxicity, dose response, cytotoxicity control for PAX8 inhibitor project, plate reader, dry powder samples (AID 743045); type: functional, cell-based
# [21] = LGR2 antagonists, dose response, cell-based, HEK293, CRE-luciferase reporter, cherry pick (AID 743342); type: functional
# [22] = target: Major prion protein (Homo sapiens, UniProt P04156); type: functional, cell-based
# [23] = cells
compound,measurement,setting,value
CCCCCCCCCC(=O)[C@@H](O)CC.CCCCCCCCCC(=O)[C@H](O)CC,AC50,[1],> 200 µM (inactive)
CCc1cccc2c(C(=O)CN3C(=O)NC4(CCCCCC4)C3=O)c[nH]c12,EC50,[2],> 91.2 µM (inactive)
same,EC50,[3],> 91.2 µM (inactive)
same,IC50,[4],> 67.6 µM (inactive)
same,IC50,[5],> 67.6 µM (inactive)
same,AC50,[6],4.33 µM (active)
same,AC50,[7],99.7 µM (active)
Cc1cccc(C)c1OCCNC(=O)C(=O)NCc1ccco1,AC50,[8],> 30 µM (inactive)
C[C@H](CO)N1C[C@H](C)[C@H](CN(C)S(=O)(=O)c2cccs2)Oc2ccc(NC(=O)Nc3ccc4c(c3)OCO4)cc2CC1=O,IC50,[9],> 69.5 µM (inactive)
same,IC50,[10],13.8 µM (inactive)
C[C@@H]1CN([C@@H](C)CO)C(=O)Cc2cc(NS(=O)(=O)c3ccc(Cl)cc3)ccc2O[C@H]1CN(C)Cc1ccc(Oc2ccccc2)cc1,AC50,[11],6.27 µM (active)
same,AC50,[12],22.5 µM (active)
same,AC50,[13],25.9 µM (active)
same,AC50,[14],26.7 µM (active)
CCN1CCN(Cc2ccc(NC(=O)c3cccc(-c4ccc5nc(NC(=O)C6CC6)sc5n4)c3)cc2C(F)(F)F)CC1,AC50,[15],5.08 µM (active)
same,AC50,[16],3.22 µM (active)
same,AC50,[17],8.7 µM (active)
same,AC50,[18],5.27 µM (active)
same,AC50,[19],2.18 µM (active)
CN1c2ccc(-c3ccccc3)cc2[C@H]2[C@H](CCN2C(=O)NC2CCCCC2)[C@@H]1CO,AC50,[11],11.5 µM (active)
same,AC50,[12],23.4 µM (active)
same,AC50,[20],53.9 µM (active)
same,AC50,[14],25.3 µM (active)
C[C@H](CO)N1C[C@H](C)[C@H](CN(C)C(=O)Nc2ccccc2)OCCCC[C@H](C)Oc2ccc(NC(=O)C3CCCCC3)cc2C1=O,AC50,[15],39.5 µM (active)
same,AC50,[21],3.87 µM (active)
Cc1onc(-c2c(F)cccc2Cl)c1C(=O)Nc1nnc(C(F)(F)F)s1,IC50,[22],2.79 µM (active)
same,IC50,[23],> 138 µM (inactive)
